Results reported in patent US10729636B2, “Compositions comprising peptide [sequence]” (NURITAS LIMITED, priority 2016, dated 2020).

How the values were obtained:
[1] = Body weight of KKAY mice; format: in vivo, mouse; settings: 100 μM/kg subcutaneous injection, 13 days of treatment
Method: • Species—KK.Cg-Ay/J (KKAY mouse) • Source—Jackson Laboratories • Age—12 weeks of age • Gender—Male • Randomization—Based on baseline fasting glucose Housing and Feeding: • Acclimation—Not less than five days • Housing • Mice will be housed on a 12 hr light/dark cycle • No more than 4 mice per cage depending on size • Ventilated cage rack system • Diet—Standard rodent chow and water ad libitum Design: • Route of administration:—Subcutaneous injection • Dose Volume(s)—10 mL/kg • Dose Levels—Test articles: 100 μM/kg, Metformin: 250 mg/kg • Number per group—10 • Total number of animals—30

[2] = system: HSkMC cells; experiment: QPCR on specific genes of interest; format: cell-based; settings: 0.5 ug/ml, normalised by B2M, over control
Method: A volume of 2 ml of HSkMC cells were seeded in a 6 cm plate, pre-coated with collagen, at a concentration of 2×10^5 cells. Cells were allowed to adhere overnight at 37° C. 5% CO2 and the following day the growth media was replaced with 2 ml of cell differentiation media and returned to the incubator at 37° C. 5% CO2. The cell differentiation media was changed every 2 days for a period of 6 days, until the HSkMC cells were fully differentiated into myotubes. On day 7, the cell differentiation media was replaced with 2 ml of basal media and starved overnight at 37° C. 5% CO2.
On the day of the experiment, the starvation media was removed and replaced with 2 ml of basal media containing 0.5 ug/ml of SEQUENCE ID NO: 1. Untreated cells were run in parallel. The cells were incubated in this treatment for a period of 20 min at 37° C. 5% CO2, at which point the treatment media was removed and the cells were scraped in 1 ml of PBS. The cell suspension was pelleted in a microcentrifuge at 1500 rpm for 5 min, and the supernatant was removed. The cells were immediately flash frozen in liquid nitrogen and transferred to a −80° C. freezer for storage until dispatched to CROs.
Quantitative PCR was performed using a TaqMan probe based method, where target mRNA expression was quantified relative to the expression of the B2M housekeeping gene. A master mix containing primer/probe and Taqman® Gene Expression Master Mix (ABI Biosystems, CA, USA) was added to 1 μl of cDNA template. A final volume of 10 μl was pipetted into a well of a 96-well Lightcycler plate (Sarstedt, Nümbrecht, Germany) in duplicate and real time PCR was performed on a Roche Lightcycler 96 (Roche Diagnostics, Basal, Switzerland) real time thermal cycler. The threshold cycle (Ct) for each well was calculated using the instrument software. Data analysis was based on the ΔΔCt method with raw data normalised by the B2M housekeeping gene included on the plate. Results are expressed as fold change over control.
QPCR results (methods of treatment remains the same; concentration of SEQ ID 1 remains 0.5 ug/ml)

[3] = system: Human Dermal Fibroblasts (HDF); experiment: Elastin production assay (ELISA); format: cell-based; settings: 5, 1 or 0.1 μg/ml, 96 h, compared with untreated control, FIG. 4
Method: Elastin is a highly elastic protein in connective tissue and allows many tissues in the body to resume their shape after stretching or contracting. […] Human Elastin ELISA kit assay is designed to measure Elastin in tissue or protein/peptide compositions.
Human Dermal Fibroblasts (HDF) were seeded in 24 well plates at 50,000 cells per well in DMEM containing 10% fetal calf serum (FCS), 1% Pen/strep, 1% L-glutamine and allowed to adhere for 24 h.
Following the initial 24 h incubation the cells were incubated with 5 μg/ml, 1 μg/ml or 0.1 μg/ml synthetic peptide for 96 h respectively.
After treatment, the cells were lysed using cell lysis buffer and sonicated for 10 seconds. The lysed cells were centrifuged and the supernatant was removed from each sample. Total protein concentration was determined using a BCA assay. Each sample was diluted in assay buffer to contain 10 μg total protein. 50 μl of each sample was then assayed using the […] Human Elastin ELISA kit. All steps were carried out according to the manufacturer's instructions.

WKDEAGKPLVK [SEQ ID NO. 1]
body weight relative to the untreated group [1]: reduced body weight | increase in body weight [1]: did not cause an increase | Fold change ([2]; ACVR2B): 0.48 fold | Fold change ([2]; Adiponectin): 1.07 fold | Fold change ([2]; COX4I1): 0.85 fold | Fold change ([2]; FBXO32): 1.00 fold | Fold change ([2]; GLUT4): 1.95 fold | Fold change ([2]; HSPA2): 0.67 fold | Fold change ([2]; LEPR): 1.20 fold | Fold change ([2]; Leptin): 0.51 fold | Fold change ([2]; MSTN): 0.17 fold | Fold change ([2]; MYOG): 0.70 fold | Fold change ([2]; NRF1): 0.54 fold | Fold change ([2]; PPARGC1A): 0.69 fold | Fold change ([2]; PRKAG3): 0.35 fold | Fold change ([2]; SIRT): 0.41 fold | Fold change ([2]; TRIM63): 0.70 fold | Fold change ([2]; UQCRB): 2.56 fold | elastin production [3]: increase
